Data published in the NIST ThermoML archive (doi:10.1016/j.tca.2014.04.018).
Where “and” joins values, the source holds several entries; their conditions need not be identical. Equal values may be shown once. Numbers after ± are expanded uncertainties.

Settings: Liquid, Calculated from knudsen effusion weight loss

## CCCc1cc(=O)[nH]c(=S)[nH]1 [6-propyl-2-thiouracil]
401.14 K
  vapor or sublimation pressure: 0.000103 ± 5e-06 kPa and 0.000101 ± 5e-06 kPa and 9.7e-05 ± 5e-06 kPa
403.18 K
  vapor or sublimation pressure: 0.000124 ± 6e-06 kPa and 0.000123 ± 6e-06 kPa and 0.000118 ± 6e-06 kPa
405.17 K
  vapor or sublimation pressure: 0.000151 ± 8e-06 kPa and 0.000144 ± 7e-06 kPa
407.15 K
  vapor or sublimation pressure: 0.000196 ± 1e-05 kPa and 0.000185 ± 9e-06 kPa and 0.000178 ± 9e-06 kPa
409.17 K
  vapor or sublimation pressure: 0.000231 ± 1.2e-05 kPa and 0.000224 ± 1.1e-05 kPa and 0.000216 ± 1.1e-05 kPa
411.16 K
  vapor or sublimation pressure: 0.000274 ± 1.4e-05 kPa and 0.000265 ± 1.3e-05 kPa
413.15 K
  vapor or sublimation pressure: 0.000332 ± 1.7e-05 kPa and 0.000325 ± 1.6e-05 kPa and 0.000317 ± 1.6e-05 kPa
415.17 K
  vapor or sublimation pressure: 0.00041 ± 2.1e-05 kPa and 0.000398 ± 2e-05 kPa and 0.000382 ± 1.9e-05 kPa
417.18 K
  vapor or sublimation pressure: 0.000484 ± 2.4e-05 kPa and 0.000485 ± 2.4e-05 kPa and 0.000468 ± 2.3e-05 kPa
419.15 K
  vapor or sublimation pressure: 0.000583 ± 2.9e-05 kPa and 0.000558 ± 2.8e-05 kPa
421.22 K
  vapor or sublimation pressure: 0.000714 ± 3.6e-05 kPa and 0.000706 ± 3.5e-05 kPa and 0.00068 ± 3.4e-05 kPa
423.21 K
  vapor or sublimation pressure: 0.000853 ± 4.3e-05 kPa and 0.000839 ± 4.2e-05 kPa and 0.00083 ± 4.2e-05 kPa
